The results in this text go back to publication PMC3705364, “Biochemical and Electrophysiological Characterization of Two Sea Anemone Type 1 Potassium Toxins from a Geographically Distant Population of Bunodosoma caissarum” (Marine Drugs, 2013).

Entries after “also recorded” stand apart in the source; their conditions may differ. Where a SMILES comes first, the peptide text is derived from it. Bridges are numbered along the chain shown (N, C = ends).

Assay [1] deals with T1, rKV1.1 (Rattus norvegicus, UniProt P10499).
T1 construct: expressed in transfected cells; host or cells: Xenopus laevis oocytes injected with cRNA
Description: Two-electrode voltage-clamp, X. laevis oocytes expressing rKV1.1. In kind it is cell-based. Conditions: mean ± standard error. How it is done: Stage V–VI of X. laevis oocytes were harvested by partial ovariectomy under anesthesia (3-aminobenzoic acid ethyl ester methanesulfonate salt, 0.5 g/L from Sigma-Aldrich Co., Saint Louis, MO, USA). The oocytes were defolliculated for 2 h by treatment with 2 mg/mL collagenase (Sigma-Aldrich Co., Saint Louis, MO, USA) in Ca^2+ free ND96 solution (in mM: 96 NaCl; 2 KCl; 1 MgCl2; 5 HEPES adjusted pH 7.4). For the expression of KV channels (KV1.1–KV1.6, KV2.1, KV3.1, KV4.2, KV4.3, hERG and the insect channel Shaker IR), the linearized plasmids were transcribed using the T7 or SP6 mMessage-mMachine transcription kit (Ambion, Austin, TX, USA). Oocytes were injected with 50 nL of cRNA at a concentration of 1 ng/nL using a microinjector (Drummond Scientific, Broomall, PA, USA). The oocytes were maintained in a ND96 solution (in mM: 96 NaCl, 2 KCl, 1.8 CaCl2, 2 MgCl2 and 5 HEPES; adjusted pH 7.4), supplemented with 50 µg/mL gentamicin sulfate.
Two-electrode voltage-clamp recordings were performed at room temperature (18–22 °C) using a Geneclamp 500 amplifier (Molecular Devices, Sunnyvale, CA, USA) controlled by a pClamp data acquisition system (Axon Instruments, Union City, CA, USA). Whole-cell currents from oocytes were recorded from 1 to 3 days after injection. Bath solution was the same ND96 solution described above. Voltage and current electrodes were filled with 3 M KCl. Resistances of both electrodes were kept between 0.8 and 1.0 ΩM. The elicited currents were filtered at 500 Hz using a four-pole lowpass Bessel filter. Leak subtraction was performed using a −P/4 protocol. KV1.1–KV1.6 and Shaker IR currents were evoked by 500 ms depolarizations to 0 mV, followed by a 500 ms pulse to −50 mV, from a holding potential of −90 mV. Current traces of hERG channels were elicited by applying a +40 mV prepulse for 2 s, followed by a step to −120 mV for 2 s. KV3.1, KV 4.2 and KV4.3 currents were elicited by 500 ms pulses to +20 mV from a holding potential of −90 mV. To assess the concentration-response relationships, data were fitted with the Hill equation: y = 100/[1 + (EC50/[toxin])h] (1) where y is the amplitude of the toxin-induced effect, EC50 is the toxin concentration at half maximal efficacy, [toxin] is the toxin concentration and h is the Hill coefficient. In order to investigate the current-voltage relationship, current traces were evoked by 10 mV depolarization steps from a holding potential of −90 mV. […]
Comparison of two sample means was made using a paired Student’s t test (p < 0.05). […] All data were analyzed using Clampfit 10.3 (Molecular Devices, Sunnyvale, CA, USA) and Origin 7.5 software (Origin Lab., Northampton, MA, USA).

The target in assay [2] is T2, Shaker IR (Drosophila melanogaster, UniProt P08510, DEL6-46).
T2 construct: expressed in transfected cells; host or cells: Xenopus laevis oocytes injected with cRNA
Description: Current-voltage (I-V) experiments, voltage dependence and reversibility on Shaker IR. The assay is classed as cell-based, insect. How it is done:
In order to elucidate whether BcsTx-1 and -2 block the current through a physical obstruction of the Shaker IR channel pore or act as gating modifiers, current-voltage (I-V) experiments were performed. The currents were inhibited at the test potentials from −90 to 100 mV, and the inhibition was not associated with a change of the shape of the I-V relationship. The control curve and the curve in the presence of BcsTx1 (500 nM) were characterized by a V1/2 values of 20.85 ± 0.69 mV and 22.62 ± 0.73 mV, respectively. Moreover, the control curve and the curve in the presence of BcsTx2 (50 nM) were characterized by a V1/2 values of 18.49 ± 1.49 mV and 23.88 ± 1.57 mV, respectively. […] To date, type 1 sea anemone toxins have been described to act solely through a KV channel pore-blocking mechanism.
Figure 8 Functional features of BcsTx1 and BcsTx2 on KV channels. (A, B) Dose-response curves of BcsTx1 and BcsTx2 on rKV1.1, rKV1.2, hKV1.3, rKV1.6 and Shaker IR channels. The curves were obtained by plotting the percentage blocked current as a function of increasing toxin concentrations. All data are presented as the mean ± standard error (n ≥ 3). (C, D) Current-voltage relationship for Shaker IR isoform in control condition and in the presence of BcsTx1 (500 nM) and BcsTx2 (50 nM). Current traces were evoked by 10 mV depolarization steps from a holding potential of −90 mV. Open circles indicates the V1/2 in control; closed circles indicate the addition of toxins. (E, F) Percentage of currents left after application of BcsTx1 (500 nM) and BcsTx2 (50 nM) on Shaker IR channel. […] (G, H) Representative experiment of the time course of Shaker IR current inhibition with BcsTx1 (500 nM) and BcsTx2 (3000 nM) and the reversibility hereof. Control (open square); washout (open circles). […] Plots shown are a representative of at least three individual experiments.
Stage V–VI of X. laevis oocytes were harvested by partial ovariectomy under anesthesia (3-aminobenzoic acid ethyl ester methanesulfonate salt, 0.5 g/L from Sigma-Aldrich Co., Saint Louis, MO, USA). The oocytes were defolliculated for 2 h by treatment with 2 mg/mL collagenase (Sigma-Aldrich Co., Saint Louis, MO, USA) in Ca^2+ free ND96 solution (in mM: 96 NaCl; 2 KCl; 1 MgCl2; 5 HEPES adjusted pH 7.4). […]
Two-electrode voltage-clamp recordings were performed at room temperature (18–22 °C) using a Geneclamp 500 amplifier (Molecular Devices, Sunnyvale, CA, USA) controlled by a pClamp data acquisition system (Axon Instruments, Union City, CA, USA). Whole-cell currents from oocytes were recorded from 1 to 3 days after injection. […]

T2 sequence (P08510 with tags, fused parts or gaps DEL6-46): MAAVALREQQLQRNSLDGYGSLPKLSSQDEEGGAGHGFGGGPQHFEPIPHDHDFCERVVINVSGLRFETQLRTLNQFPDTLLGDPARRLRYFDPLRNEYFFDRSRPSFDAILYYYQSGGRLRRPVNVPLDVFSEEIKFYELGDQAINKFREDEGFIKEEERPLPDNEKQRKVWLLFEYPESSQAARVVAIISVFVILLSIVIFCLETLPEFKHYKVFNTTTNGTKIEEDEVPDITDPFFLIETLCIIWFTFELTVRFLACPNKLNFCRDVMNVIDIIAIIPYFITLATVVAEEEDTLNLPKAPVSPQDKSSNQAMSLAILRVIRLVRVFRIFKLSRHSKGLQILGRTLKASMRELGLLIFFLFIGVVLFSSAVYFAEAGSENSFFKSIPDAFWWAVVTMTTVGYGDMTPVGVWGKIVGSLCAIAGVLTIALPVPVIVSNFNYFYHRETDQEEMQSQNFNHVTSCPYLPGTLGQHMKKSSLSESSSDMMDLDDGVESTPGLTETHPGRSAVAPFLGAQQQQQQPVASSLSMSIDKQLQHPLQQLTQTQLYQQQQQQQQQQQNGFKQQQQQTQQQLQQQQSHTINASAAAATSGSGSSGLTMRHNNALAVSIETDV
T1 sequence (P10499 whole entry): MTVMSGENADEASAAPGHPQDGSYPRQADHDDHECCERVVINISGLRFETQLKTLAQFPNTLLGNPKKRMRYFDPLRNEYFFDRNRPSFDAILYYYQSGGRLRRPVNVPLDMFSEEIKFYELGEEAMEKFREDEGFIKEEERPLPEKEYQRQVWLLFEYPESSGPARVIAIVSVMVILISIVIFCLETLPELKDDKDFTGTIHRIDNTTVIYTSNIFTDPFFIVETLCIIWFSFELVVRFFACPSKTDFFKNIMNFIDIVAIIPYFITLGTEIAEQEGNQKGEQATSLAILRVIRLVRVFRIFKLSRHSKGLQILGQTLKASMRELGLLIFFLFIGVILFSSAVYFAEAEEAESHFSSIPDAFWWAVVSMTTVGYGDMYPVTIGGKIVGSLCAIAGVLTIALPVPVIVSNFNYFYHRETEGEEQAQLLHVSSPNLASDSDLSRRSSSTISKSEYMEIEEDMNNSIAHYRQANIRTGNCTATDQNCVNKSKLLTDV

In the case of `CC(C)C[C@@H]1NC(=O)[C@H](CCCCN)NC(=O)[C@H](C)NC(=O)[C@H](Cc2c[nH]cn2)NC(=O)[C@H](CCC(N)=O)NC(=O)[C@@H]2CSSC[C@@H]3NC(=O)[C@H](CC(N)=O)NC(=O)[C@H](C)NC(=O)[C@H](CCCNC(=N)N)NC(=O)[C@H](Cc4ccc(O)cc4)NC(=O)[C@H](CCCCN)NC(=O)[C@H](CCC(N)=O)NC(=O)[C@H](CO)NC(=O)[C@H](CC(N)=O)NC(=O)[C@H](CCCCN)NC(=O)[C@H](CSSC[C@H](NC(=O)[C@H]([C@@H](C)O)NC(=O)[C@H](CCCCN)NC(=O)[C@H](C)NC3=O)C(=O)NCC(=O)N3CCC[C@H]3C(=O)N[C@H](C(=O)O)CSSC[C@H](NC(=O)[C@H](C)N)C(=O)N[C@@H](CCCCN)C(=O)N[C@@H](CC(=O)O)C(=O)NCC(=O)N[C@@H](Cc3ccccc3)C(=O)N3CCC[C@H]3C(=O)N[C@@H]([C@@H](C)O)C(=O)N[C@@H](C)C(=O)N[C@@H]([C@@H](C)O)C(=O)N2)NC(=O)[C@H](CC(N)=O)NC(=O)CNC(=O)[C@H](C(C)C)NC1=O` [BcsTx2] (H-ACKDGFPTATCQHAKLVGNCKNSQKYRANCAKTCGPC-OH; disulfide 2-37, 11-30, 20-34; C-terminus assumed), the inhibition at 3 µM in assay [1] (3 µM, n ≥ 3, read-out: inhibition of rKV1.1 current) is 96%. The IC50 in assay [1] (TEVC, 18–22 °C, ND96 pH 7.4, 500 ms depolarizations to 0 mV from −90 mV, Hill fit, n ≥ 3) came to 14.4 ± 2.61 nM. In addition, in assay [2] (Shaker IR, BcsTx1 500 nM, BcsTx2 3000 nM, washout), the “reversibility of blockage upon washout (in words)” value is “reversible, and a complete recovery was observed after washout; also recorded: binding was reversible upon washout”. Further, the “onset of blockage (in words)” value in assay [2] (Shaker IR, time course, BcsTx1 500 nM, BcsTx2 3000 nM) is on record as “Blockage occurred rapidly”. Also, in assay [2] (Shaker IR, −10 mV to 50 mV, BcsTx1 500 nM, BcsTx2 50 nM), the “voltage dependence of blockage (in words)” value is “non-dependence of voltage for the blockage; also recorded: no difference was observed in the degree of BcsTx1- and BcsTx2-induced blockage”. Also, in assay [2] (in presence of 50 nM toxin, control 18.49 ± 1.49 mV, Boltzmann fit), the “V1/2 of activation, Shaker IR” value is 23.88 ± 1.57 mV.

The term inhibition denotes the share of the control response that was lost under treatment. As usually defined, the IC50 is the concentration needed to halve the response being measured. Read a low IC50 as greater potency.
